The test system of one test is cbh-2 / gh6-2 (NCU09680). The experiment in a line: Quantitative RT-PCR of cbh-2/gh6-2 expression after 4 h induction with a carbon source. The format is cell-based, Neurospora crassa. The protocol: Strains were inoculated at an OD595 equal to 0.05 in 50 ml Vogel's salts with 2% (wt/vol) sucrose in a 250 ml Erlenmeyer flask and grown under constant light at 200 rpm for 16 hours. The biomass was then spun at 4000 rpm for 10 minutes and washed in Vogel's twice to remove any excess sucrose. The biomass was then added to a new 50 ml culture with 2% (wt/vol) sucrose, cellobiose (Sigma) or Avicel® PH 101 (Avicel®). Cultures were induced for 4 hours under constant light at 200 rpm. The culture biomass was then harvested by filtration over a Whatman glass microfiber filter (GF/F) on a Buchner funnel and washed with 50 ml Vogel's, biomass was flash frozen in liquid Nitrogen and stored at −80° C.
Total RNA from frozen samples was isolated using Zirconia/Silica beads (0.2 g, 0.5 mm diameter; Biospec) and a Mini-Beadbeater-96 (Biospec) with 1 mL TRIzol reagent (Invitrogen) according to manufacturer's instructions. Total RNA was further purified by digestion with TURBO DNA-free (Ambion) and an RNeasy kit (Qiagen). RNA integrity was checked by Nanodrop and agarose gel electrophoresis.
Quantitative RT-PCR was performed using the EXPRESS One-Step SYBR GreenER Kit (Invitrogen) and the StepOnePlus Real-Time PCR System (Applied Biosystems). Reactions were performed in triplicate with a total reaction volume of 10 ul including 300 nM each forward and reverse primers and 75 ng template RNA. Data Analysis was performed by the StepOne Software (Applied Biosystems) using Relative Quantitation/Comparative CT (ΔΔCT). […]
Conidia from strains were inoculated at an OD595 equal to 0.05 in 50 ml Vogel's salts (45) with 2% w/v sucrose in a 250 ml Erlenmeyer flask and grown under constant light at 200 rpm for 16 hours. […] Three independent biological duplicates (flasks) were evaluated for each time point. […]
Quantitative RT-PCR was performed using the EXPRESS One-Step SYBR GreenER Kit (Invitrogen) and the StepOnePlus Real-Time PCR System (Applied Biosystems). […] Data Analysis was performed by the StepOne Software (Applied Biosystems) using the Relative Quantitation/Comparative CT (ΔΔCT) setting. […]

Test [1] deals with Exoglucanase (Cellobiohydrolase I). Briefly: MuLac (4-Methylumbelliferyl β-D-cellobioside) exoglucanase activity of culture supernatant. The format is cell-based, Neurospora crassa. The conditions noted are these: for MuLac activity: triple β-glucosidase deletion. The protocol:
Strains were inoculated at an OD595 equal to 0.05 in 100 ml Vogel's salts with 1% (wt/vol) sucrose in a 250 ml Erlenmeyer flask and grown under constant light at 200 rpm for 24 hours. Cultures were then induced with 2% sucrose, 2% cellobiose, 1% sucrose/1% cellobiose, or 1% sucrose/1% Avicel®. Cultures continued to grow under constant light at 200 rpm for 5 days with supernatant collected at 1, 2, 3, 4 and 5 day. The collected supernatant was filtered through a 0.2 μm PES filter to remove biomass before being stored at −20° C. until all samples were collected. To visualize the secreted proteins, 15 μl of unconcentrated supernatant was run on a Criterion 10% Tris-HCL polyacrylamide gel and stained with Thermo Scientific GelCode Blue Stain Reagent.
Exoglucanase (Cellobiohydrolase I) activity was measured using a 4-Methylumbelliferyl β-D-cellobioside (MuLac) assay. This assay mainly measures the activity of CBH-1 and activity is expressed as the change in fluorescence over time resulting in the slope of a best-fit line as an indication of enzyme activity. Prior to performing this assay, any excess sugars in the culture supernatant were removed by passing the supernatant over a 5,000 Dalton concentrator (sartorius stedim Vivaspin 500). Retained proteins were washed twice with 50 mM sodium acetate pH 5 and diluted to 2 μg/μl to assure that the assay remained in the linear range. […] The assay was performed in a Beckman Coulter Paradigm plate reader set at 40° C. with excitation/emission wavelengths of 360/465 nm with readings every 30 seconds for 10 minutes. The slope of the best-fit line represents the MuLac activity for an individual culture supernatant. The MuLac activity is normalized to the initial dilution required to obtain a 2 μg/μl concentration in order to represent the undiluted activity. The activity of recombinant cellobiohydrolase-1 was used as a standard and data is presented as a percentage of the wild type activity on Avicel® after 4 days.

SMILES strings stand for the structures.

Turning to `O=C[C@H](O)[C@@H](O)[C@H](O[C@@H]1O[C@H](CO)[C@@H](O)[C@H](O)[C@H]1O)[C@H](O)CO` [cellobiose], the “cbh-2 relative expression compared to sucrose” value in the test with cbh-2 / gh6-2 (NCU09680) (WT strain, 2% carbon source, 4 h induction) is reported as “no change”. The “cbh-2 increase in relative expression over expression on sucrose” value in the test on cbh-2 / gh6-2 (NCU09680) (triple β-glucosidase mutant, 2% carbon source, 4 h induction) is recorded as 2,100 fold. The “induction of gh6-2” value in the test with cbh-2 / gh6-2 (NCU09680) (Δcre-1 strain, shifted from sucrose to 0.2% cellobiose for 4 hrs) is given as 85 fold. Besides, the MuLac activity in test [1] (4 days) stood at 4.84 μg CBHI equivalent; in test [1] (two days), 1.4 μg recombinant CBHI. The “MuLac activity (CBHI equivalent produced)” value in test [1] (triple β-glucosidase/Δcre-1 deletion strain, four days) is listed as “more than 11 μg CBHI equivalent”. The “activity towards MuLac” value in test [1] (Δcre-1, time not stated) is 0.8 µg.

Source of the values: patent US9822373B2, “Mutant cells for protein secretion and lignocellulose degradation” (The Regents of the University of California, priority 2011, dated 2017).
